Measured values taken from patent publication US7407951B2, “Pyrrolobenzodiazepines” (Spirogen Limited, priority 2002, dated 2008).

How the values were obtained:
[1] = test system: Lung 629L; assay: In vitro clonogenic assay (two-layer agar), lung; format: cell-based, human; conditions: continuous exposure, 8-20 days, colony count
Method: (§1) In order to determine the activity of the compounds synthesised, solid human tumour xenografts growing subcutaneously in serial passages in thymus aplastic nude mice (Naval Medical Research Institute, USA nu/nu strain) were removed under sterile condition, mechanically disaggregated and subsequently incubated with an enzyme cocktail consisting of collagenase (41 U/ml, Sigma), DNAse I (125 U/ml, Roche), hyaluronidase (1000 U/ml, Sigma) and dispase II (1.0 U/ml) in RPMI 1640-Medium (Life Technologies) at 37° C. for 30 minutes. Cells were passed through sieves of 200 μm and 50 μm mesh size and washed twice with sterile PBS-buffer. The percentage of viable cells was determined in a Neubauer-hemocytometer using trypan blue exclusion. The cells generated were as follows: • Breast MACL MCF7 • […] • Lung 629L • Melanoma MEXF 462NL
(§2) The clonogenic assay was performed in a 24-well format according to a modified two-layer agar assay introduced by Hamburger, A. W. and Salmon, S. E., Science, 197, […] (1977). The bottom layer consisted of 0.2 ml/well of Iscove's Modified Dulbecco's Medium (supplemented with 20% fetal calf serum and 1% gentamicin) and 0.75% agar. 4×10^4 to 8×10^4 cells were added to 0.2 ml of the same culture medium supplemented with 0.4% agar and plated in 24-multiwell dishes onto the bottom layer. The test compounds were applied by continuous exposure (drug overlay) in 0.2 ml culture medium. Each dish included six control wells containing the vehicle and drug treated groups in triplicate at 6 concentrations. Cultures were incubated at 37° C. and 7.5% CO2 in a humidified atmosphere for 8-20 days and monitored closely for colony growth using an inverted microscope. Within this period, in vitro tumour growth led to the formation of colonies with a diameter of >50 μm. At the time of maximum colony formation, counts were performed with an automatic image analysis system (OMNICOM FAS IV, Biosys GmbH). 24 hours prior to evaluation, vital colnies were stained with a sterile aqueous solution of 2-(4-iodophenyl)-3-(4-nitrophenyl)-5-phenyltetrazolium chloride (1 mg/ml, 100 μl/well).
(§3) The IC50 values of the test compounds were determined by plotting compound concentration versus cell viability.

[2] = test system: Renal RXF 944L; assay: In vitro clonogenic assay (two-layer agar), renal; format: cell-based, human; conditions: continuous exposure, 8-20 days, colony count
Method: as §1, §2, §3

[3] = test system: Melanoma MEXF 462NL; assay: In vitro clonogenic assay (two-layer agar), melanoma; format: cell-based, human; conditions: continuous exposure, 8-20 days, colony count
Method: as §1, §2, §3

[4] = test system: Breast MACL MCF7; assay: In vitro clonogenic assay (two-layer agar), breast; format: cell-based, human; conditions: continuous exposure, 8-20 days, colony count
Method: as §1, §2, §3

[5] = test system: melanoma cell lines; assay: NCI hollow fibre assay, melanoma variation; format: in vivo, human; conditions: 6 cell lines; for IP + SC score: combined score, 10 or more referred for xenograft testing; for IP score: intraperitoneal fibres in mice; for IP score / SC score: drug IP QDx4, 2 doses, 2 points per dose giving 50% or greater reduction in viable cell mass; for SC score: subcutaneous fibres in mice
Excerpt: (§4) The Biological testing Branch of the Developmental Therapeutics Program of the NCI has adopted a preliminary in vivo screening tool for assessing the potential anticancer activity of compounds identified by the large scale in vitro cell screen. For these assays, human tumour cells are cultivated in polyvinylidene (PVDF) hollow fibres, and a sample of each cell line is implanted into each of two physiologic compartments (intraperitoneal and subcutaneaous) in mice. Each test mouse received a total of 6 fibres (3 intraperitoneally and 3 subcutaneously) representing 3 distinct cancer cell lines. These mice are treated with potential antitumour compounds at each of 2 test doses by the intraperitoneal route using a QD×4 treatment schedule. Vehicle controls consist of 6 mice receiving the compound diluent only. The fibre cultures are collected on the day following the last day of treatment. To assess anticancer effects, the viable cell mass is determined for each of the cell lines using a formazyn dye (MTT) conversion assay. From this, the % T/C can be calculated using the average optical density of compound treated samples divided by the average optical; density of the vehicle controls. In addition, the net increase in cell mass can be determined for each sample, as a sample of fibre cultures are assessed for viable cell mass on the day of implantation into mice. Thus, the cytostatic and cytocidal capacities of the test compound can be assessed.
(§5) Generally, each compound is tested against a minimum of 12 human cancer cell lines. This represents a total of 4 experiments since each experiment contains 3 cell lines. The data are reported as % T/C for each of the 2 compound doses against each of the cell lines with separate values calculated for the intraperitoneal and subcutaneous samples.
(§6) Compounds are selected for further in vivo testing in standard subcutaneous xenograft models on the basis of several hollow fibre assay criteria. These include: (1) a % T/C of 50 or less in 10 of the 48 possible test combinations (12 cell lines×2 sites ×2 compound doses); (2) activity at a distance (intraperitoneal drug/subcutaneous culture) in a minimum of 4 of the 24 possible combinations; and/or (3) a net cell kill of 1 or more of the cell lines in either implant site. To simplify evaluation, a points system has been adopted which allows rapid evaluation of the activity of a given compound. For this, a value of 2 is assigned for each compound dose which results in a 50% or greater reduction in viable cell mass. The intraperitoneal and subcutaneous samples are scored separately so that criteria (1) and (2) can be evaluated. Compounds with a combined IP+SC score of 20, a SC score of 8 or a net cell kill of one or more cell lines are referred for xenograft testing. […] In addition to these criteria, other factors (e.g. unique structure, mechanism of action) may result in referral of a compound for xenograft testing without the compound meeting these criteria.
(§7) Certain compounds of the invention were tested in variations of these assays, to assess their activity against renal and melanoma cell lines. In the melanoma assay, only 6 cell lines are used, and therefore compounds with a combined IP+SC score of 10 or a SC score of 4 are referred for xenograft testing. In the renal assay, only three cell lines are used and therefore compounds with a combined IP+SC score of 5 or a SC score of 2 are referred for xenograft testing.

[6] = test system: renal cell lines; assay: NCI hollow fibre assay, renal variation; format: in vivo, human; conditions: three cell lines; for IP + SC score: combined score, 5 or more referred for xenograft testing; for IP score: intraperitoneal fibres in mice; for IP score / SC score: drug IP QDx4, 2 doses, 2 points per dose giving 50% or greater reduction in viable cell mass; for SC score: subcutaneous fibres in mice
Excerpt: as §4, §5, §6, §7

[7] = test system: approximately 60 human tumour cell lines; assay: NCI in vitro cytotoxicity screen (SRB assay); format: cell-based; conditions: GI50 in Moles, 48 hour continuous exposure
Method: The National Cancer Institute (NCI), Bethesda, Md. USA has available an in vitro cytotoxicity screen which consists of approximately 60 human tumour cell lines against which compounds are tested at a minimum of five concentrations each differing 10-fold. A 48 hour continuous exposure protocol is used, where cell viability or growth is estimated with an SRB protein assay.
The test compounds were evaluated against approximately 60 human tumour cell lines. The NCI screening procedures were described in detail by Monks and co-workers (Monks, A et al., Journal of the National Cancer Institute, 1991, 83, 757). Briefly, cell suspensions were diluted according to the particular cell type and the expected target cell density (5000-40,000 cells per well based on cell growth characteristics), and added by pipette (100 μL) into 96-well microtitre plates. The cells were allowed a preincubation period of 24 hours at 37° C. for stabilisation. Dilutions at twice the intended test concentration were added at time zero in 100 μL aliquots to the wells. The test compounds were evaluated at five 10-fold dilutions (10^−4, 10^−5, 10^−6, 10^−7 and 10^−[…]). The test compounds were incubated for 48 hours in 5% CO2 atmosphere and 100% humidity. The cells were then assayed using the sulphorhodamine B assay. […]

SMILES	IC50 ([1]; Homo sapiens) [nM]	IC50 ([2]; Homo sapiens) [nM]	IC50 ([4]; Homo sapiens) [nM]	IP + SC score [5]	IP score [5]	SC score [5]	IP + SC score [6]	IP score [6]	SC score [6]	also measured
COc1ccc(C2=CN3C(=O)c4cc(OC)c(OC)cc4N=C[C@@H]3C2)cc1 [Compound C2]	5	1.5	1.96	–	–	–	–	–	–	IC50 ([3]; Homo sapiens): 2.85 nM
COc1cc2c(cc1OC)C(=O)N1C=C(c3ccccc3C)C[C@H]1C=N2 [Compound 19, (11aS)-1,11a-dihydro-7,8-dimethoxy-2-(2-methylbenzene)-5H-pyrrolo[2,1-c][1,4]benzodiazepin-5-one]	1	–	0.35	8	4	4	–	–	–	–
COc1cc2c(cc1OC)C(=O)N1C=C(c3ccc(C)cc3)C[C@H]1C=N2 [Compound C3, reference compound]	8	0.89	1.59	2	0	2	2	2	0	IC50 ([3]; Homo sapiens): 2 nM
COc1cc2c(cc1OC)C(=O)N1C=C(c3ccco3)C[C@H]1C=N2 [Compound 25, (11aS)-1,11a-dihydro-7,8-dimethoxy-2-(2-furan)-5H-pyrrolo[2,1-c][1,4]benzodiazepin-5-one]	–	–	–	–	–	–	–	–	–	MG_MID (average log GI50 across all cell lines tested) [7]: −7.18
COc1cc2c(cc1OC)C(=O)N1C=C(c3c(C)cccc3C)C[C@H]1C=N2 [Compound 27, (11aS)-1,11a-dihydro-7,8-dimethoxy-2-(2,6-dimethylbenzene)-5H-pyrrolo[2,1-c][1,4]benzodiazepin-5-one]	–	–	–	–	–	–	8	4	4	–
COc1cc2c(cc1OC)C(=O)N1C=C(c3ccc4ccccc4c3)C[C@H]1C=N2 [Compound 11, (11aS)-1,11a-dihydro-7,8-dimethoxy-2-(2-napthyl)-5H-pyrrolo[2,1-c][1,4]benzodiazepin-5-one]	–	–	0.22	–	–	–	–	–	–	–
COc1cc2c(cc1OC)C(=O)N1C=C(c3ccccc3)C[C@H]1C=N2 [Compound C1, reference compound]	44.5	20.5	19.3	4	4	0	0	0	0	IC50 ([3]; Homo sapiens): 40 nM
COc1cc2c(cc1OC)C(=O)N1C=C(c3ccc(Cl)cc3)C[C@H]1C=N2 [Compound 15, (11aS)-1,11a-dihydro-7,8-dimethoxy-2-(4-chlorobenzene)-5H-pyrrolo[2,1-c][1,4]benzodiazepin-5-one]	–	–	0.15	–	–	–	–	–	–	–
COc1cc2c(cc1OC)C(=O)N1C=C(c3cccs3)C[C@H]1C=N2 [Compound 23, (11aS)-1,11a-dihydro-7,8-dimethoxy-2-(2-thiophene)-5H-pyrrolo[2,1-c][1,4]benzodiazepin-5-one]	–	–	0.35	–	–	–	–	–	–	MG_MID (average log GI50 across all cell lines tested) [7]: −6.34
COc1cc2c(cc1OC)C(=O)N1C=C(c3ccc(C(C)(C)C)cc3)C[C@H]1C=N2 [Compound 13, (11aS)-1,11a-dihydro-7,8-dimethoxy-2-(4-tert-butylbenzene)-5H-pyrrolo[2,1-c][1,4]benzodiazepin-5-one]	–	–	–	6	2	4	6	4	2	IC50 [4]: 0.26 nM
CCc1ccc(C2=CN3C(=O)c4cc(OC)c(OC)cc4N=C[C@@H]3C2)cc1 [Compound 21, (11aS)-1,11a-dihydro-7,8-dimethoxy-2-(4-ethylbenzene)-5H-pyrrolo[2,1-c][1,4]benzodiazepin-5-one]	–	–	–	10	10	0	–	–	–	IC50 [1]: 0.36 nM; IC50 [2]: < 0.1 nM; IC50 [3]: < 0.1 nM; IC50 [4]: < 0.1 nM
COc1cc2c(cc1OC)C(=O)N1C=C(c3ccc(F)cc3)C[C@H]1C=N2 [Compound 17, (11aS)-1,11a-dihydro-7,8-dimethoxy-2-(4-fluorobenzene)-5H-pyrrolo[2,1-c][1,4]benzodiazepin-5-one]	–	0.17	–	–	–	–	–	–	–	–
